Results from patent US5484772A, “Antithrombotic agents” (Eli Lilly and Company, priority 1994, dated 1996).

How the values were obtained:
Assay type in all cases: biochemical
[1] = molecular target: T1, Human plasmin (Homo sapiens, UniProt P00747); test: Plasmin amidase inhibition, chromogenic substrate (Kass); settings: apparent association constant; Hydrochloride
T1 construct: Human plasmin is purchased from Boehringer Mannheim; purchased Boehringer Mannheim, Indianapolis, Ind

[2] = molecular target: T2, Human factor Xa (Homo sapiens, UniProt P00742); test: Factor Xa amidase inhibition, chromogenic substrate (Kass); settings: apparent association constant; Hydrochloride
T2 construct: Human factors X, Xa, IXa, XIa, and XIIa are purchased; purchased Enzyme Research Laboratories, South Bend, Ind
T2 sequence (P00742 235-488 limits assumed): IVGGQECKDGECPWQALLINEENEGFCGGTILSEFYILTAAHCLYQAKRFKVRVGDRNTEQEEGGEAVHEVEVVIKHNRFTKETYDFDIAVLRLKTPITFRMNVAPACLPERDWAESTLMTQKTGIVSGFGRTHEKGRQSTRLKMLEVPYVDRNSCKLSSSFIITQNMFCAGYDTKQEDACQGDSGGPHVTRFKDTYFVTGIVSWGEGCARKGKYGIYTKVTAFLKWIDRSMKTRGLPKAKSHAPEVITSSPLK
T2 sequence (P00742 41-179 limits assumed): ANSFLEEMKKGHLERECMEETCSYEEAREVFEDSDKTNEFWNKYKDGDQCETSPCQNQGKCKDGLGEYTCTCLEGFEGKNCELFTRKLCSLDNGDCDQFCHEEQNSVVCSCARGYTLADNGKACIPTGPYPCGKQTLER

[3] = molecular target: T3, t-PA (Homo sapiens, UniProt P00750); test: t-PA amidase inhibition, chromogenic substrate (Kass); settings: apparent association constant; Hydrochloride
T3 construct: purchased American Diagnostica, Greenwich, Conn
T3 sequence (P00750 36-562): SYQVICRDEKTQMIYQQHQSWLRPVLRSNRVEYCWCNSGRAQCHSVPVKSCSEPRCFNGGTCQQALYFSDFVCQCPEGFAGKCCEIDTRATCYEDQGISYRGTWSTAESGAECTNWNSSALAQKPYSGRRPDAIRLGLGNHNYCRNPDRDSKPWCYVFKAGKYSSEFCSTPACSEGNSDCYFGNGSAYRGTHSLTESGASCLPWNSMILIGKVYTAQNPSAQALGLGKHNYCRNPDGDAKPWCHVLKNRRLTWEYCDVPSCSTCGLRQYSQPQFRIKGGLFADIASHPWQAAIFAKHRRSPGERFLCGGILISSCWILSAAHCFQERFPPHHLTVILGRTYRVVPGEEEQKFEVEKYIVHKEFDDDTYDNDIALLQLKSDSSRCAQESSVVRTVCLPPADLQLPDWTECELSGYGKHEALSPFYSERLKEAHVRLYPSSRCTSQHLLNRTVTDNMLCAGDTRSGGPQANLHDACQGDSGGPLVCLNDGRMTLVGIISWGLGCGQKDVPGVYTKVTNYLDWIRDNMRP

[4] = molecular target: T4, Bovine trypsin (Bos taurus, UniProt P00760); test: Trypsin amidase inhibition, chromogenic substrate (Kass); settings: apparent association constant; Hydrochloride
T4 construct: purchased Worthington Biochemicals, Freehold, N.J
T4 sequence (P00760 24-246): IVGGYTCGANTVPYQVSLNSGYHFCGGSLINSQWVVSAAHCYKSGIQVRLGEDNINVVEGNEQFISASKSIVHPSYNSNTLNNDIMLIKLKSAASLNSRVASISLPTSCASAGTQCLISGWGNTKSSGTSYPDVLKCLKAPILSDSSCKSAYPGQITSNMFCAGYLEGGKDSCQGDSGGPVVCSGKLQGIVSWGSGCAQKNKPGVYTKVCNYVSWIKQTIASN

[5] = test system: Human plasma; test: Human plasma anticoagulation, thrombin time (TT); settings: concentration required to double thrombin time, linear extrapolation, Hydrochloride
Method: (§1) Dog plasma and rat plasma are obtained from conscious mixed-breed hounds (either sex, hazelton-LRE, Kalamazoo, Mich., U.S.A.) or from anesthetized male Sprague-Dawley rats (Harlan Sprague-Dawley, Inc., Indianapolis, Ind., U.S.A.) by venipuncture into 3.8 percent citrate. Fibrinogen is prepared from in-date ACD human blood as the fraction I-2 according to previous procedures and specifications. Smith, Blochem. J., 185, 1-11 (1980); and Smith, et al., Biochemistry, 11, 2958-2967 (1972). Human fibrinogen is also purchased as 98 percent pure/plasmin free from American Diagnostica, Greenwich, Conn. Coagulation reagents ACTIN, Thromboplastin, and Human plasma are from Baxter Healthcare Corp., Dade Division, Miami, Fla. Bovine thrombin from Parke-Davis (Ann Arbor, Mich.) is used for coagulation assays in plasma.
(§2) Coagulation assay procedures are as previously described. Smith, et al., Thrombosis Research, 50, 163-174 (1988). […] The prothrombin time (PT) is measured by adding 0.05 ml saline and 0.05 ml Thromboplastin-C reagent to 0.05 ml test plasma. The activated partial thromboplastin time (APTT) is measured by incubation of 0.05 ml test plasma with 0.05 ml Actin reagent for 120 seconds followed by 0.05 ml CaCl2 (0.02M). The thrombin time (TT) is measured by adding 0.05 ml saline and 0.05 ml thrombin (10 NIH units/ml) to 0.05 ml test plasma. […]

[6] = test system: Human plasma; test: Human plasma anticoagulation, prothrombin time (PT); settings: concentration required to double PT, linear extrapolation, Hydrochloride
Method: as §1, §2

[7] = molecular target: human thrombin (Homo sapiens, UniProt P00734); test: Thrombin amidase inhibition, chromogenic substrate (Kass); settings: apparent association constant, mean over a range of concentrations; Hydrochloride
Method: The assay is carried out by mixing 50 μl buffer (0.03M Tris, 0.15M NaCl, pH 7.4), 25 μl of human thrombin solution (purified human thrombin, Enzyme Research Laboratories, South Bend, Ind., at 8 NIH units/ml) and 25 μl of test compound in a solvent (in 50% aqueous methanol, v:v). Then 150 μl of an aqueous solution of the chromogenic substrate (at 0.25 mg/ml) are added and the rates of hydrolysis of the substrate are measured by monitoring the reactions at 405 nm for the release of p-nitroaniline. Standard curves are constructed by plotting free thrombin concentration against hydrolysis rate. The hydrolysis rates observed with test compounds are then converted to free thrombin values in the respective assays by use of the standard curves. The bound thrombin (bound to test compound) is calculated by subtracting the amount of free thrombin observed in each assay from the known initial amount of thrombin used in the assay. The amount of free inhibitor in each assay is calculated by subtracting the number of moles of bound thrombin from the number of moles of added inhibitor (test compound).
The Kass value is the hypothetical equilibrium constant for the reaction between thrombin and the test compound (I). [formula] Kass is calculated for a range of concentrations of test compounds and the mean value is reported in units of liter per mole.

[8] = test system: Human plasma; test: Human plasma anticoagulation, activated partial thromboplastin time (APTT); settings: concentration required to double APTT, linear extrapolation, Hydrochloride
Method: as §1, §2

T1 sequence (P00747 581-810 limits assumed): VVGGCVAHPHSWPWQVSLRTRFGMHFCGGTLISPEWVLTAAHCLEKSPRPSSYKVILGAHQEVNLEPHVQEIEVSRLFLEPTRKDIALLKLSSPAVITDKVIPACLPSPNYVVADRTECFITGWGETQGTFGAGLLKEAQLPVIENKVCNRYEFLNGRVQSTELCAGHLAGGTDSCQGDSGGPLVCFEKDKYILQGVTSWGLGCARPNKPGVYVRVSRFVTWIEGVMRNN
T1 sequence (P00747 97-580 limits assumed): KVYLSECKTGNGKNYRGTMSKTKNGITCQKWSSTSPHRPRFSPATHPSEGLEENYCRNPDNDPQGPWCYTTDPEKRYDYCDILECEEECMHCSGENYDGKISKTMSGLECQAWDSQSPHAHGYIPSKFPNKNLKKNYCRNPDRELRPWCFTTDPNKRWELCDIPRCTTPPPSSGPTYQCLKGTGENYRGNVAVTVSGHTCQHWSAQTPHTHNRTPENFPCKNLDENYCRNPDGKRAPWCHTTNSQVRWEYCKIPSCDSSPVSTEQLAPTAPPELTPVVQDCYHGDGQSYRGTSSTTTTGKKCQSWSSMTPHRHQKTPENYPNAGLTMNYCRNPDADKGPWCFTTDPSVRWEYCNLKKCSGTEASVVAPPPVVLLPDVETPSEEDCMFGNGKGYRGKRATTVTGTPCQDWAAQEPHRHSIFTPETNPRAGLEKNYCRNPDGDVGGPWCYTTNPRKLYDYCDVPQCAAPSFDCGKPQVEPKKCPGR

| SMILES | Kass Plasmin [1] [L/mol × 10^6] | Kass Xa [2] [L/mol × 10^6] | Kass t-PA [3] [L/mol × 10^6] | Kass Trypsin [4] [L/mol × 10^6] | 2 × Clotting time TT [5] [ng/mL] | 2 × Clotting time PT [6] | Kass Human Thrombin [7] [L/mol × 10^6] | 2 × Clotting time APTT [8] |
| --- | --- | --- | --- | --- | --- | --- | --- | --- |
| CCOC(=O)NC(CC)(Cc1ccccc1)C(=O)N1CCC[C@H]1C(=O)N[C@H](C=O)CCCNC(=N)N.Cl (stereo partly drawn) [Example 13, N-Ethoxycarbonyl-L-phenylalanyl (αethyl)-L-prolinyl-L-arginine Aldehyde Hydrochloride] | 0.12 | 0.036 | 0.002 | 4.9 | 93 | 3,300 ng/mL | 57 |  |
| CCOC(=O)N[C@@H](Cc1ccccc1)C(=O)N1CCC[C@@]1(C)C(=O)N[C@H](C=O)CCCNC(=N)N.Cl [Example 5, N-Ethoxycarbonyl-L-phenylalanyl (αmethyl)-L-prolinyl-L-arginine Aldehyde Hydrochloride] | 0.059 | 0.044 | 0.00079 | 2.4 | 48 | 2,200 ng/mL | 75 | 2,500 ng/mL |
